Test results taken from patent publication US20220087987A1, “A METHOD FOR TREATING SWI/SNF COMPLEX-DEFICIENT CANCERS COMPRISING GLUTATHIONE (GSH) METABOLIC PATHWAY INHIBITOR” (National Cancer Center, priority 2018, published 2022).

Columns and labels:
[1] = system: uterine cancer cell lines; experiment: Cell viability of uterine cancer cell lines; assay type: cell-based, human; conditions: treatment for 6 days
Method: (§1) Cell viability was examined by measuring the cellular ATP level using the CellTiter-Glo Luminescent Cell Viability Assay (Promega). To measure cell viability after siRNA-mediated knockdown, cell lines were transfected with siRNAs (25 nM) using Lipofectamine RNAiMAX. After 48 hrs, cells were trypsinized and repeatedly transfected with siRNAs (25 nM) using Lipofectamine RNAiMAX. Cells were trypsinized after a further 48 hrs, counted, and reseeded at the specified density in 96-well plates. To measure cell viability after drug treatment, cells were trypsinized, counted, reseeded at the specified density in 96-well plates, and exposed to the indicated concentrations of drugs. Cell viability was measured using the CellTiter-Glo Luminescent Cell Viability Assay. Luminescence was measured using an Envision Multi-label plate reader (PerkinElmer).

[2] = system: bile duct cancer cell lines; experiment: Cell viability of bile duct cancer cell lines; assay type: cell-based, human; conditions: treatment for 6 days
Method: as §1

[3] = system: SWI/SNF complexes (SMARCA2, SMARCA4, SMARCB1, PBRM1) deficient cancer cells; experiment: Cell viability of SWI/SNF complex-deficient cancer cell lines; assay type: cell-based, human; conditions: treatment for 6 days
Method: as §1

[4] = system: ROS; experiment: Detection of ROS in cells (ROS-Glo); assay type: cell-based, human; conditions: ARID1A-deficient versus ARID1A-proficient ovarian and other cancer cells
Method: (§2) GSH, ROS and apoptosis were detected using the GSH/GSSG-Glo Assay (Promega) and/or the GSH-Glo Assay (Promega), the ROS-Glo Assay (Promega), and the Caspase-Glo 3/7 Assay, respectively. To measure levels of GSH, ROS and apoptosis after drug treatment, cells were trypsinized, counted, reseeded at the specified density in 96-well plates and exposed to the indicated concentrations of drugs. After 16-48 hrs, luminescence was measured using an Envision Multi-label plate reader (PerkinElmer). To measure levels of GSH and ROS after siRNA-mediated knockdown, cell lines were transfected with siRNAs (25 nM) using Lipofectamine RNAiMAX. After 48 hrs, cells were trypsinized and transfected repeatedly with siRNAs (25 nM) using Lipofectamine RNAiMAX. Cells were trypsinized after a further 48 hrs, counted, and reseeded at the specified density in 96-well plates. After 72-120 hrs, luminescence was measured using an Envision Multi-label plate reader (PerkinElmer). Cell viability was also measured using the CellTiter-Glo Luminescent Cell Viability Assay (Promega). Caspase-3/7, GSH, and ROS levels were normalized against cell viability. The GSH/GSSG ratio was calculated as the GSH-GSSG signal divided by the GSSG/2 signal. Relative signal ratios in treated samples were normalized against untreated samples.

[5] = system: ARID1A-deficient TOV21G OCCC xenografts; experiment: Mouse xenograft model, TOV21G; assay type: in vivo, mice; conditions: APR-246 50 mg/kg
Method: All mouse experiments were approved by the National Cancer Center (NCC) animal Ethical Committee. Cells were counted and re-suspended in a 1:1 mixture of 100 μl culture medium and 100 μl Matrigel (BD Biosciences) on ice. […] In the subcutaneous model, once the tumors were palpable (about 3-14 days after implantation), mice were randomly divided into two groups. […] In the doxycycline (Dox) treatment study, TOV21G-shNT cells and TOV21G-shGCLC cells were injected into the flanks of 6-week-old female BALB/c-nu/nu mice. […] In other experiments, TOV21G-shNT cells and TOV21G-shGCLC cells were treated with Dox (0.5 μg/ml) for 4 days and then injected into the flank of 6-week-old female BALB/c-nu/nu mice. […] Tumor growth was measured every several days using calipers. The volume of implanted tumors was calculated using the formula V=L×W2/2, where V is volume (mm^3), L is the largest diameter (mm), and W is the smallest diameter (mm). At the end of the experiment, mice were sacrificed in accordance with standard protocols.
GSH was detected using the GSH-Glo Assay (Promega). Tumor samples derived from xenografts were weighed and washed with PBS. The tumor samples were mixed with 50 μl of PBS and homogenized using a Mini Cordless Grinder (Funakoshi). PBS (950 μl) was added to homogenized tumor samples and centrifuged at 4° C. for 10 min at 15,000 rpm. Tumor extract and 2×GSH-Glo Reagent (25 μl of each) were mixed in white 96-well plates (Greiner) and incubated for 30 min at room temperature. Luciferin Detection Reagent (50 μl) was added and the samples were incubated for 15 min at room temperature. Luminescence was measured using an Envision Multi-label plate reader (PerkinElmer). GSH signal intensities per 1 mg of tumor sample were calculated.
Formalin-fixed, paraffin-embedded ovarian cancer clinical specimens and TOV21G xenografts were deparaffinized and representative whole 4-μm-thick sections were analyzed by IHC. […] The samples were removed from the freezer and equilibrated at −20° C. for approximately 15 minutes before sectioning. Tissue sections (6 μm thick) were placed on positively charged slides, dried, and fixed for 15 minutes at room temperature in 3% formaldehyde, followed by 5 minutes in methanol at −20° C. After fixation, representative sections were analyzed by IHC. […] All IHC staining was performed using a Dako autostainer Link48 (Dako).
First, membrane staining intensity (0, 1+, 2+, or 3+) was determined for each cell in a fixed field. The H-score was assigned using the following formula: [1×(% cells 1+)+2×(% cells 2+)+3×(% cells 3+)]. The final score, ranging from 0 to 300, gives more relative weight to higher-intensity membrane staining in a given tumor sample. The percentage of NOXA-, cleaved caspase-3-, cleaved PARP- and Ki67-positive cells (of the total number of cells) in each slide were counted.

[6] = system: ARID1A-KO cells and ARID1A-deficient cancer cells; experiment: Apoptosis detection (cleaved caspase-3/7, Annexin V); assay type: cell-based, human
Method: The Annexin V-FITC/PI Apoptosis Detection Kit (Sigma-Aldrich) was used to detect apoptotic cells. Briefly, the cell pellet was suspended in 1× binding buffer and then incubated with Annexin V-FITC and PI in the dark for 10 min. Fluorescence was analyzed on a Guava flow cytometer (Millipore). Data were analyzed using GuavaSoft software (v. 2.7). Relative ratios of the Annexin V-positive fraction in treated samples were normalized against untreated samples.
as §2, with “To measure levels of GSH and ROS after siRNA-mediated knockdown, cell lines were transfected with siRNAs (25 nM) using Lipofectamine RNAiMAX. After 48 hrs, cells were trypsinized and transfected repeatedly with siRNAs (25 nM) using Lipofectamine RNAiMAX.” left out, “Caspase-3/7, GSH, and ROS levels were normalized against cell viability.” left out, “Relative signal ratios in treated samples were normalized against untreated samples.” left out

[7] = system: ARID1A-proficient and ARID1A-deficient cancer cell lines; experiment: Cell viability and colony formation in cancer cell line panel; assay type: cell-based, human
[8] = system: GSH; experiment: Detection of GSH in cells (GSH/GSSG-Glo, GSH-Glo); assay type: cell-based, human; conditions: ARID1A-deficient versus ARID1A-proficient ovarian and other cancer cells
[9] = system: ovarian PDCs; experiment: Cell viability of ovarian patient-derived cancer cells; assay type: cell-based, human; conditions: 33 μM APR-246 or 100 μM BSO for 6 days
Method: Tumor samples and ascites were obtained from four ovarian cancer patients who underwent surgery or cell-free and concentrated ascites reinfusion therapy at the National Cancer Center Hospital or Kaname-cho Hospital (Tokyo, Japan) and were cultured in vitro. This protocol was approved by the Institutional Review Board of the National Cancer Center (Tokyo, Japan), and informed consent was obtained from the patients. To establish CCCO219 and CCC1216 PDCs, patient ascites (24 ml) were diluted in two volumes of PBS containing 2 mM EDTA, layered over 15 ml Ficoll-Paque PLUS (GE Healthcare), and centrifuged at 2200 rpm for 30 min. The interphase mononuclear layer was transferred to a fresh conical tube and washed twice with PBS containing 2 mM EDTA. […]
as §1, with “To measure cell viability after siRNA-mediated knockdown, cell lines were transfected with siRNAs (25 nM) using Lipofectamine RNAiMAX. After 48 hrs, cells were trypsinized and repeatedly transfected with siRNAs (25 nM) using Lipofectamine RNAiMAX.” left out

[10] = system: diffuse-type gastric cancer PDCs; experiment: Cell viability of diffuse-type gastric cancer PDCs; assay type: cell-based, human; conditions: treatment for 6 days

## CCCCS(=N)(=O)CCC(N)C(=O)O (stereo not shown) [BSO, buthionine sulfoximine]
[1]
  sensitivity to BSO of uterine cancer cell lines: sensitized ARID1A-deficient cell lines more efficiently than ARID1A-proficient cell lines
[2]
  sensitivity to BSO of bile duct cancer cell lines: sensitized ARID1A-deficient cell lines more efficiently than ARID1A-proficient cell lines
[3]
  sensitivity to BSO (relative AUC for cell viability): sensitized these SWI/SNF complexes deficient cell lines more efficiently than these SWI/SNF complexes proficient cell lines
[4]
  ROS level in cancer cell lines: increased ROS levels
[5]; BSO 750 mg/kg
  tumor weight: reduced tumor weight
[5]; BSO 750 mg/kg once a day
  body weight of mice: without loss of body weight
[5]; intraperitoneally once daily 12-14 days, BSO 750 mg/kg
  growth of xenografts (tumor volume): markedly suppressed xenograft growth
[6]
  apoptosis (caspase activation, Annexin V): increased apoptosis
[7]; cell viability after 3 days
  sensitivity of ARID1A-deficient TOV21G versus ARID1A-proficient RMG-I ovarian cancer cells: more sensitive than ARID1A-proficient RMG-I ovarian cancer cells
[7]; four ARID1A-proficient and six ARID1A-deficient cell lines, cell viability, colony formation
  sensitivity of ARID1A-deficient versus ARID1A-proficient cancer cells: selectively sensitive to BSO
[8]
  GSH level in cancer cell lines: decreased the GSH level
[9]
  sensitivity of ARID1A-deficient versus ARID1A-positive PDCs: more sensitive
[10]
  sensitivity to BSO (relative AUC for cell viability): sensitized ARID1A-deficient PDCs more efficiently than ARID1A-proficient PDCs
